SMILES strings stand for the structures. Like-named read-outs stand apart in the source and are kept apart here.

In patent US9675595B2, “Synergistic combinations of PI3K- and MEK-inhibitors” (Novartis AG, priority 2011, dated 2017) one finds IC50 data, which are given here for 2 compounds.

Assay type in all cases: cell-based
The test system of experiment [1] is SW480. As to the kind of experiment: Cell viability (CellTiterGlo, 72 h), Example 1. As to conditions: Homo sapiens, single agent. From the text: (§1) The colorectal cancer cell lines SW1417, COLO 205, LS411N, HT-29, RKO, OUMS-23, SW620, LoVo, SW480, SW837, COLO-678, LS123-NCI—H747, HCT-15, HCT116, DLD-1, T84, SW948, LS180, GP2d, HuTu 80, CW-2, SW48, NCI—H716, C2Bbe1, SNU—C1 and KM12 are obtained from the American Type Culture Collection (ATCC) and maintained in their respective culture medium as specified by the provider. These colorectal cancer cell lines have the following mutation status:
(§2) For assessment of combination effects, cells are seeded into 384-well plates at 500 cells/well and incubated overnight. The contents of the compound master plates are pre-diluted with 1:200 (1 μL compound solution to 200 μL cell […] culture medium containing 10% fetal clf serum) before transferring 5 μL of this pre-dilution to the cell plates containing 20 μL cell culture medium, to achieve the targeted final compound concentrations as well as a vehicle (DMSO) concentration of 0.09%.
(§3) Effects of single agents as well as their checkerboard combinations on cell viability are assessed after 72 hours of incubation at 37° C./5% CO2 by quantification of cellular ATP levels (CellTiterGlo, Promega) using 25 μL reagent/well and n=2 repliate plates per condition. The number/viability of cells at the time of compound addition was likewise assessed and used to estimate the population doubling time of the particular cell line. Single agent IC50s are calculated using standard four-parametric curve fitting (SLFit, model 205). Potential synergistic interactions between compound combinations are assessed using the Excess Inhibition 2D matrix according to the Loewe additivity model and are reported as Synergy Score. In addition, compound combinations are assessed by combination index analysis derived from isobologram graphs at 50% inhibition, and are reported as best combination index (CI), which corresponds to the lowest value on the isobologram. All synergy calculations are performed using CHALICE software (Lehár et al, Nat Biotechnol. (July 2009), 27(4): 69:66).

The test system of experiment [2] is COLO205. As to the kind of experiment: Cell viability (CellTiterGlo, 72 h), Example 1. The following applies: Homo sapiens, COLO 205, single agent.
Excerpt: as §1, §2, §3

Experiment [3] relates to SW48. In words: Cell viability (CellTiterGlo, 72 h), Example 1. The following applies: Homo sapiens, single agent.
Excerpt: as §1, §2, §3

Experiment [4] relates to C2BBe1. In words: Cell viability (CellTiterGlo, 72 h), Example 1. The following applies: Homo sapiens, single agent.
Excerpt: as §1, §2, §3

In experiment [5] the test system is T84. As to the kind of experiment: Cell viability (CellTiterGlo, 72 h), Example 1. The following applies: Homo sapiens, duplicate data points and dose response display some scatter, single agent.
Excerpt: as §1, §2, §3

In experiment [6] the test system is RKO. As to the kind of experiment: Cell viability (CellTiterGlo, 72 h), Example 1. The following applies: Homo sapiens, single agent.
Excerpt: as §1, §2, §3

Experiment [7] concerns LoVo. As to the kind of experiment: Cell viability (CellTiterGlo, 72 h), Example 1. As to conditions: Homo sapiens, single agent.
Excerpt: as §1, §2, §3

The test system of experiment [8] is NCI-H716. As to the kind of experiment: Cell viability (CellTiterGlo, 72 h), Example 1. The following applies: Homo sapiens, single agent.
Excerpt: as §1, §2, §3

The test system of experiment [9] is DLD-1. In words: Cell viability (CellTiterGlo, 72 h), Example 1. The following applies: Homo sapiens, single agent.
Excerpt: as §1, §2, §3

The subject of experiment [10] is HuTu 80. In words: Cell viability (CellTiterGlo, 72 h), Example 1. As to conditions: Homo sapiens, HuTu80, single agent.
Excerpt: as §1, §2, §3

The subject of experiment [11] is HT-29. In words: Cell viability (CellTiterGlo, 72 h), Example 1. The following applies: Homo sapiens, HT-29, 72 h.
Excerpt: as §1, §2, §3

Experiment [12] has as its system colorectal cancer cell lines. As to the kind of experiment: Cell viability (CellTiterGlo, 72 h), Example 1, whole panel. As to conditions: repeat experiments (*) excluded.
Excerpt: as §1, §2
as §3, with “[…]). Interpretation of values for combination index and synergy score are provided below:” for “69:66).”
Pairwise multiple comparisons of the result groups are performed by one-way ANOVA (Neuman-Keuls method) using GraphPad Prism 5 (GraphPad Software Inc.). Results

In the case of `Cn1cnc2c(F)c(Nc3ccc(Br)cc3F)c(C(=O)NOCCO)cc21` [COMPOUND B, 6-(4-bromo-2-fluorophenylamino)-7-fluoro-3-methyl-3H-benzoimidazole-5-carboxylic acid (2-hydroxyethoxy)-amide], the half-inhibitory concentration (IC50) in [1] (read-out: Cmpd. B IC50) is 2.03 µM; in experiment [2] (read-out: Cmpd. B IC50), 0.0344 µM; in [3] (read-out: Cmpd. B IC50), 0.0784 µM; in [4] (read-out: Cmpd. B IC50) it was 1.58 µM; in [5] (read-out: Cmpd. B IC50), 12.8 µM; in experiment [6] (read-out: Cmpd. B IC50), over 2.7 µM. Moreover, the IC50 is 0.148 µM in experiment [7] (read-out: Cmpd. B IC50); over 2.7 µM in experiment [8] (read-out: Cmpd. B IC50); over 2.7 µM in [9] (read-out: Cmpd. B IC50); over 2.7 µM in experiment [10] (read-out: Cmpd. B IC50); 0.0665 µM in experiment [11] (HT-29*, repeat experiment performed at end of study, single agent, read-out: Cmpd. B IC50); 0.084 µM in [11] (HT-29, single agent, read-out: Cmpd. B IC50). The IC50 was 1.16 µM in [12] (Mean over colorectal cell lines, read-out: Mean Cmpd. B IC50) and 0.076 µM in [12] (Median over colorectal cell lines, read-out: Median Cmpd. B IC50).

`Cc1nc(NC(=O)N2CCC[C@H]2C(N)=O)sc1-c1ccnc(C(C)(C)C(F)(F)F)c1` [COMPOUND A, (S)-pyrrolidine-1,2-dicarboxylic acid 2-amide 1-({4-methyl-5-[2-(2,2,2-trifluoro-1,1-dimethyl-ethyl)-pyridin-4-yl]-thiazol-2-yl}-amide)]: the IC50 in experiment [1] (read-out: Cmpd. A IC50) was 9.35 µM; in experiment [2] (read-out: Cmpd. A IC50) it was over 10.8 µM; in experiment [3] (read-out: Cmpd. A IC50), 1.41 µM; in experiment [4] (read-out: Cmpd. A IC50) it was 9.2 µM; in [5] (read-out: Cmpd. A IC50), 4.16 µM; in [6] (read-out: Cmpd. A IC50) it was 6.73 µM. For the same compound, the IC50 was 8.66 µM in [7] (read-out: Cmpd. A IC50); over 10.8 µM in experiment [8] (read-out: Cmpd. A IC50); over 10.8 µM in experiment [9] (read-out: Cmpd. A IC50); 8.84 µM in experiment [10] (read-out: Cmpd. A IC50); 4.28 µM in experiment [11] (HT-29*, repeat experiment performed at end of study, single agent, read-out: Cmpd. A IC50); 5.2 µM in experiment [11] (HT-29, single agent, read-out: Cmpd. A IC50). Moreover, the IC50 in [12] (Mean over colorectal cell lines, read-out: Mean Cmpd. A IC50) amounted to 7.51 µM; in [12] (Median over colorectal cell lines, read-out: Median Cmpd. A IC50) it was 8.66 µM.
